Where two headings read alike, the source gives them in different places.
Columns and labels:
[1] = system: Male Sprague-Dawley Rats; test: Nephrotoxicity of non-deuterated D-serine at 300 mg/kg PO (Example 2); assay type: in vivo
Method: (§1) The hippocampus, cortex and plasma were collected and analyzed. Additional blood was collected and were analyzed for the full clinical chemistry profile. Urine was also collected and examined for glucose and total protein. […] The mean plasma, hippocampus, and cortex concentration at 1 hour are 19200 ng/mL, 674 ng/g, and 754 ng/g; respectively. The mean plasma, hippocampus, and cortex concentrations at 8 hours were 11250 ng/mL, 17725 ng/g, and 11875 ng/g, respectively. […] Blood urea nitrogen and creatinine levels were elevated.

[2] = Pharmacokinetics of deuterated and non-deuterated D-serine, PO 10 mg/kg (Example 5); assay type: in vivo, male Sprague Dawley rats; conditions: male, Sprague Dawley, rat, plasma, 0.5% Methylcellulose
Method: Three rats were used for each group. Blood was collected at the following time points: for IV dosing: pre-dose, 0.05, 0.167, 0.5, 1, 2, 4, 6, 8 and 12 hours post-dose; for PO dosing: pre-dose, 0.25, 0.5, 1, 2, 4, 6, 8 and 12 hours post-dose PO. Urine was collected at pre-dose (minimum 12 hours), 0-6, 6-12 and 12-24 hours. Plasma samples were analyzed and quantified for dosed compound LC-MS/MS.

[3] = Pharmacokinetics dose response of non-deuterated D-serine, 30-300 mg/kg PO (Example 4); assay type: in vivo, male Sprague-Dawley rats; conditions: plasma; for Cmax / AUC(0-inf): (CV %)
Description: (§2) The pharmacokinetic profile of non-deuterated D-serine was investigated in male Sprague-Dawley rats. […] Plasma was collected and analyzed for the non-deuterated D-serine. Additional blood was collected and analyzed for the full clinical chemistry profile.

[4] = molecular target: T1, human NMDAR subunits GluN1 and GluN2A (Homo sapiens, UniProt Q05586); test: NMDA receptor activation in automated patch clamp system (ScreenPatch); assay type: cell-based; conditions: HEK293 cells, 0.003 to 10 μM, Compound 100 versus d-serine
T1 construct: expressed in transfected cells; host or cells: HEK293
Method: Peak current and steady state current were measured. The activity at the NMDA receptor was indistinguishable for the two compounds.

[5] = system: Male Sprague-Dawley Rats; test: Nephrotoxicity dose response of non-deuterated D-serine, 30-300 mg/kg PO (Example 4); assay type: in vivo; conditions: 24 hr samples at the 150 and 300 mg/kg doses, compared to control and reference values
Description: as §2

[6] = system: rats; test: Nephrotoxicity comparison at doses from 150 mg/kg to 750 mg/kg (dose escalation, FIGS. 7-10); assay type: in vivo; conditions: for changes in BUN or creatinine: PO doses from 150 mg/kg to 750 mg/kg
[7] = Pharmacokinetics of non-deuterated D-serine after a 300 mg/kg PO dose (Example 2); assay type: in vivo, Male Sprague-Dawley Rats; conditions: male, Sprague-Dawley, rat; for concentration at 1 h: oral, 300 mg/kg, 1 hour (in Example 2); for concentration at 1 h / concentration at 8 h: mean
Method: as §1

[8] = Pharmacokinetic profile of Compound 100 and non-deuterated D-serine after 150 mg/kg PO doses (Example 3); assay type: in vivo, male Sprague-Dawley rats; conditions: for AUC(0-inf) / Cmax / Tmax / concentration at 4 h / concentration at 8 h / concentration at 24 h: male, Sprague-Dawley, rat; for concentration at 4 h / concentration at 8 h / concentration at 24 h: po
Description: (§3) The pharmacokinetic profile of Compound 100 was investigated in male Sprague-Dawley rats compared with that of non-deuterated D-serine. […] Plasma was collected and analyzed for Compound 100 and non-deuterated D-Serine. Additional blood was collected and analyzed for the full clinical chemistry profile.

[9] = system: Male Sprague-Dawley Rats; test: Nephrotoxicity of Compound 100 and non-deuterated D-serine at 150 mg/kg PO (Example 3); assay type: in vivo
Description: as §3

[10] = Brain distribution of Compound 100 after a single 100 mg/kg PO dose (Example 10); assay type: in vivo, male Sprague-Dawley rats; conditions: male, Sprague-Dawley, rat, mean
Method: The distribution profile of Compound 100 was investigated in male Sprague-Dawley rats. […] At 24 hours after dosing, tissues from perfused brain and plasma were collected and analyzed by LC-MS.

[11] = Plasma, hippocampus and cortex concentration of Compound 100 after a 30 mg/kg PO dose (Example 1); assay type: in vivo, male Sprague Dawley rats; conditions: male, Sprague-Dawley, rat, mean
Method: The mean plasma, hippocampus, and cortex concentrations at 1 hour were 19200 ng/mL, 674 ng/g, and 754 ng/g, respectively. The mean plasma, hippocampus, and cortex concentrations at 6 hours were 1780 ng/mL, 1385 ng/g, and 936 ng/g, respectively.

[12] = Cortex versus plasma half-life of Compound 100 after 4 days of 100 mg/kg PO dosing (Example 11); assay type: in vivo, male Sprague-Dawley rats; conditions: male, Sprague-Dawley, rat, 100 mg/kg PO once per day for 4 days
Method: After 4 days, tissues from perfused brain and plasma were collected and analyzed by LC-MS at 24 hours (group 1), 72 hours (group 2) and 120 hours (group 3) after dosing.

[13] = dose escalation 150 mg/kg to 750 mg/kg
[14] = cortex, read-out: Cortex concentration
[15] = hippocampus, read-out: Hippocampus concentration
[16] = plasma, read-out: Plasma concentration
[17] = serum, D-serine at 24 hr, Compound 100 at 4, 8, and 24 hours
[18] = cortex, 150 mg/kg, mean, read-out: Cortex concentration
[19] = hippocampus, 150 mg/kg, mean, read-out: Hippocampus concentration
[20] = plasma, 150 mg/kg, mean, read-out: Plasma concentration

SMILES: N[C@H](CO)C(=O)O [Non-deuterated D-Serine, D-serine]
- Blood urea nitrogen level [1]: elevated
- creatinine level [1]: elevated
- glucose in urine [1]: presence of glucose was observed
- AUC(0-inf) [2]: 13.2 µg·h/mL
- Cmax [2]: 8780 ng/mL
- Tmax [2]: 25 min
- half-life [2]: 106 min
- Tmax ([3]; male, Sprague-Dawley, rat, po, 30 mg/kg, 30 mg/kg PO): 30 min
- Cmax ([3]; male, Sprague-Dawley, rat, po, 30 mg/kg, 30 mg/kg PO, read-out: Cmax): 24300 ng/mL
- Tmax ([3]; male, Sprague-Dawley, rat, po, 75 mg/kg, 75 mg/kg PO): 30 min
- Cmax ([3]; male, Sprague-Dawley, rat, po, 75 mg/kg, 75 mg/kg PO, read-out: Cmax): 54300 ng/mL
- Tmax ([3]; male, Sprague-Dawley, rat, po, 100 mg/kg, 100 mg/kg PO): 30 min
- Cmax ([3]; male, Sprague-Dawley, rat, po, 100 mg/kg, 100 mg/kg PO, read-out: Cmax): 96100 ng/mL
- Tmax ([3]; male, Sprague-Dawley, rat, po, 150 mg/kg, 150 mg/kg PO): 18 min
- Cmax ([3]; male, Sprague-Dawley, rat, po, 150 mg/kg, 150 mg/kg PO, read-out: Cmax): 180000 ng/mL
- Tmax ([3]; male, Sprague-Dawley, rat, po, 300 mg/kg, 300 mg/kg PO): 30 min
- Cmax ([3]; male, Sprague-Dawley, rat, po, 300 mg/kg, 300 mg/kg PO, read-out: Cmax): 216000 ng/mL
- Tmax ([3]; male, Sprague-Dawley, rat, po, 300 mg/kg, all doses 30, 75, 100, 150, and 300 mg/kg PO): 18 to 30 min
- AUC(0-inf) ([3]; male, Sprague-Dawley, rat, 30 mg/kg PO): 50.6 µg·h/mL
- AUC(0-inf) ([3]; male, Sprague-Dawley, rat, 75 mg/kg PO): 148 µg·h/mL
- AUC(0-inf) ([3]; male, Sprague-Dawley, rat, 100 mg/kg PO): 246 µg·h/mL
- AUC(0-inf) ([3]; male, Sprague-Dawley, rat, 150 mg/kg PO): 349 µg·h/mL
- AUC(0-inf) ([3]; male, Sprague-Dawley, rat, 300 mg/kg PO): 911 µg·h/mL
- Cmax ([3]; 300 mg/kg PO, 300 mg/kg): 261000 (32.3%) ng/mL
- activity at the NMDA receptor (peak current and steady state current) [4]: indistinguishable
- creatine level [5]: Elevated levels
- gamma glutamyl transferase (GGT) level [5]: Elevated levels
- urea nitrogen level [5]: Elevated levels
- changes in BUN or creatinine [6]: increasingly elevated levels
- gross signs of nephrotoxicity [6, 13]: observed
- concentration at 1 h [7, 14]: 754 ng/g
- concentration at 8 h ([7]; cortex, 300 mg/kg PO, read-out: Cortex concentration): 11900 ng/g
- concentration at 1 h [7, 15]: 674 ng/g
- concentration at 8 h ([7]; hippocampus, 300 mg/kg PO, read-out: Hippocampus concentration): 17700 ng/g
- concentration at 1 h [7, 16]: 19200 ng/mL
- concentration at 8 h ([7]; plasma, 300 mg/kg PO, endogenous level subtracted, read-out: Plasma concentration): 11200 ng/mL
- AUC(0-inf) ([7]; plasma, 300 mg/kg PO): 500 µg·h/mL
- Cmax ([7]; plasma, 300 mg/kg PO): 268000 ng/mL
- Tmax ([7]; plasma, 300 mg/kg PO): 30 min
- half-life ([7]; plasma, 300 mg/kg PO): 218 min
- AUC(0-inf) ([8]; plasma): 349 µg·h/mL
- Cmax ([8]; plasma): 180000 ng/mL
- Tmax ([8]; plasma): 20 min
- levels of biomarkers of nephrotoxicity [9]: caused an increase
- blood urea nitrogen (BUN) level ([9]; serum, D-serine at 8 hr and 24 hr, Compound 100 at 4, 8, and 24 hours): Elevated levels
- creatinine level [9, 17]: Elevated levels
- gamma glutamyl transferase (GGT) level [9, 17]: Elevated levels

SMILES: [2H][C@@](N)(CO)C(=O)O [Compound 100, (2R)-2-amino-2-deutero-3-hydroxy-propanoic acid]
- concentration at 24 h ([10]; brain stem, perfused brain, read-out: brain stem concentration): 721 ng/g
- concentration at 24 h ([10]; cerebellum, perfused brain, read-out: cerebellum concentration): 290 ng/g
- concentration at 24 h ([10]; cortex, perfused brain, read-out: cortex concentration): 4660 ng/g
- concentration at 24 h ([10]; plasma, read-out: plasma concentration): 880 ng/mL
- concentration at 1 h [11, 14]: 754 ng/g
- concentration at 6 h [11, 14]: 936 ng/g
- concentration at 1 h [11, 15]: 674 ng/g
- concentration at 6 h [11, 15]: 1380 ng/g
- concentration at 1 h [11, 16]: 19200 ng/mL
- concentration at 6 h [11, 16]: 1780 ng/mL
- AUC(0-inf) [2]: 21.5 µg·h/mL
- Cmax [2]: 11400 ng/mL
- Tmax [2]: 25 min
- half-life [2]: 160 min
- activity at the NMDA receptor (peak current and steady state current) [4]: indistinguishable
- half-life ([12]; cortex, read-out: half-life (T1/2) in the cortex (converted)): ~48 h
- half-life ([12]; plasma, read-out: plasma T1/2): < 12 h
- changes in BUN or creatinine [6]: minimal changes
- exposure as measured by AUC and Cmax, versus non-deuterated D-serine [6, 13]: greater
- gross signs of nephrotoxicity [6, 13]: not
- concentration at 4 h [8, 18]: 5070 ng/g
- concentration at 8 h [8, 18]: 4040 ng/g
- concentration at 24 h ([8]; cortex, 150 mg/kg, mean, 24 hr, read-out: Cortex concentration): 2420 ng/g
- concentration at 4 h [8, 19]: 6160 ng/g
- concentration at 8 h [8, 19]: 4340 ng/g
- concentration at 24 h ([8]; hippocampus, 150 mg/kg, mean, 24 hr, read-out: Hippocampus concentration): 4200 ng/g
- AUC(0-inf) ([8]; plasma): 383 µg·h/mL
- Cmax ([8]; plasma): 186000 ng/mL
- Tmax ([8]; plasma): 40 min
- concentration at 4 h [8, 20]: 23300 ng/mL
- concentration at 8 h [8, 20]: 2040 ng/mL
- concentration at 24 h ([8]; plasma, 150 mg/kg, mean, 24 hr, read-out: Plasma concentration): 711 ng/mL
- Hippocampus concentration ([8]; mean, 24 hr, 150 mg/kg): 4220 ng/g
- levels of biomarkers of nephrotoxicity [9]: did not increase

Reference: US20200368193A1 (Concert Pharmaceuticals, Inc., priority 2017, published 2020)
